The source of these data is patent publication US20260137745A1, “QUERCETAGETIN ENRICHED MARIGOLD EXTRACTS, COMPOSITIONS, METHODS OF PREPARATION AND USE THEREOF” (AVT NATURAL PRODUCTS LTD., priority 2022, published 2026).

≈ marks a conversion by molar mass, not a printed value. Where two headings read alike, the source gives them in different places.

One experiment is described as follows: DPPH Antioxidant Assay. The experiment is classed as biochemical. The conditions noted are these: lower is better. The procedure: DPPH assay is considered a valid accurate and easy method to evaluate radical scavenging activity of antioxidants. DPPH [1,1-diphenyl-2-picryl hydrazyl] is a stable free radical with purple color. Antioxidants reduce DPPH to 1,1-diphenyl-2-picryl hydrazine, a color less compound which is measured at an absorbance of […]. This is an accepted mechanism for screening the antioxidant activity of plant extracts in a concentration dependent manner. Accordingly, the DPPH Antioxidant Assay was conducted as per known protocols for the compositions comprising QG40, and compositions comprising QG90, and Quercetin.

Experiment [1] can be described thus: Oxygen Radical Absorbance Capacity (ORAC) assay. The experiment is classed as biochemical. To be noted: higher is better. The method, then: The Oxygen Radical Absorbance Capacity (ORAC) assay is a method that measures the antioxidant capacity of a substance. The ORAC assay measures a fluorescent signal from a probe that is quenched in the presence of Reactive Oxygen Species (ROS). […] In accordance with this protocol, ORAC assay was evaluated (using known protocols) for the composition comprising QG40 extract; the composition comprising QG90 extract and compared the same with composition comprising quercetin. […] Higher the ORAC value, means better performance by the composition.

The subject of experiment [2] is Keratinocyte (HACAT) cells. Put plainly: Cellular ROS Assay. To be noted: Homo sapiens, DCF-DA probe, flow cytometry, read-out: ROS inhibition IC50. In kind it is cell-based. The method, then: The Cellular ROS Assay is a cell-based assay designed for measuring Reactive Oxygen Species activity within a cell using the cell-permeable fluorogenic probe 2′. 7′-Di chloro dihydro fluorescein diacetate (DCF-DA). […] ROS induces the modification of carboxy-H2DCFDA that fluoresces green as detected by flow cytometry. ROS inhibition was evaluated for the composition with QG40 extract; the composition with QG90 extract and composition with quercetin.

Experiment [3] has as its system Human Adult Epidermal Melanocytes (HAEM). The experiment is described as follows: Cellular melanin inhibition assay. The experiment is classed as cell-based. To be noted: Melanocyte, read-out: melanin inhibition IC50. The procedure:
Cellular melanin inhibition assay is a cell-based assay designed for measuring Melanin inhibition in Human Adult Epidermal Melanocytes (HAEM). Darkly pigmented melanocytes were treated with test samples and incubated for 72 hrs. Post incubation, melanin was extracted and measured at an absorbance of 490 nm to evaluate the non-cytotoxic concentration of test sample (i.e. composition with QG40 extract; the composition with QG90 extract and composition with quercetin) for melanin inhibition.

Regarding `O.O.O=c1c(O)c(-c2ccc(O)c(O)c2)oc2cc(O)cc(O)c12` [Composition having Quercetin, Quercetin dihydrate], the “DPPH Scavenging activity (IC50)” value in the experiment “DPPH Antioxidant Assay” came out at 6.27 µg/mL. The ORAC value in experiment [1] was found to be 18.69 m1\4 TE/g. For the same compound, the figures for the IC50 in experiment [2] and in experiment [3] (72 h) were 16.5 µg/mL and 9.62 µg/mL, respectively.
With `O=c1cc(CO)occ1O` [Kojic acid], in experiment [3] (darkly pigmented melanocytes, 72 hrs incubation), the IC50 was 25 µg/mL (≈ 176 µM).
